Data reported in ChEMBL document CHEMBL6127099, “Stimuli-responsive prodrugs with self-immolative linker for improved cancer therapy” (Eur J Med Chem, 2024).

Molecular target: NAD(P)H dehydrogenase [quinone] 1 (Homo sapiens, UniProt P15559)
Experiment: Prodrug activation assessed as NQO1 (unknown origin)-mediated RSSH release by measuring rate constant

NAD(P)H dehydrogenase [quinone] 1, sequence (P15559 whole entry): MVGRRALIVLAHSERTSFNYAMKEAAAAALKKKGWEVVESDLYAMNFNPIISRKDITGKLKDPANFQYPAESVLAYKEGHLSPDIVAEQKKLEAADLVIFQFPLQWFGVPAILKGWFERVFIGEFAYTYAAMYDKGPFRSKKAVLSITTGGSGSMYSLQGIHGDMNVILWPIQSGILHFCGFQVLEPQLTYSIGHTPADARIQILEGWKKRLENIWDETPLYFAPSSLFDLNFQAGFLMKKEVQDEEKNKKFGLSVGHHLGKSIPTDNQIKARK

Compound `COC(=O)[C@H](NC(C)=O)C(C)(C)SSC(=O)N(C)CCN(C)C(=O)CC(C)(C)C1=C(C)C(=O)C(C)=C(C)C1=O` has a K of 0.17 min⁻¹.
`Cc1c(C)c2c(c(C)c1O)C(C)(C)CC(=O)O2` showed a K of 0.32 min⁻¹.
`COC(=O)[C@H](NC(C)=O)C(C)(C)SSCc1ccc(N(C)C(=O)CC(C)(C)C2=C(C)C(=O)C(C)=C(C)C2=O)cc1` gave a K of 0.162 min⁻¹.
In the case of `CN1CCN(C)C1=O`, the K is reported as 0.212 min⁻¹.
